Reference: patent US20110124579A1, “SIALIC ACID TO SUPPORT SALIVATION” (NESTEC S.A., priority 2008, published 2011)
“Also recorded” adds a separate entry of the source.

System: rats
Test: Pilocarpine stimulated salivation (cholinergic neuronal activity) in young adult and aged rats after 3 weeks on diet
Assay type: in vivo, rat
Method: Young adult (3 months) and aged rats (24 months) were fed a semisynthetic diet containing sialic acid at a concentration of 0.15 g/100 g diet (control) or a semi-synthetic diet additionally supplemented with sialic acid to a final concentration of 0.9 g/100 g diet (Sia).
After 3 weeks on the experimental diet neuronal activity of cholinergic neurons was assessed. To this end rats were injected pilocarpine (IP, 1.5 mg/kg body weight for 24 months rats and 2 mg/kg body weight for 3 months rats). Pilocarpine is a muscarinic agonist acting on cholinergic neurons, which leads to salivation. Thus stimulated saliva collection was timed with a chronometer. After about 7 minutes collection was stopped.

CC(=O)N[C@H]1[C@H]([C@H](O)[C@H](O)CO)OC(O)(C(=O)O)C[C@@H]1O (some centres unmarked) [sialic acid, N-acetylneuraminic acid]
stimulated salivation / neuronal activity of cholinergic neurons (stimulated saliva production per time) (aged rats (24 months), diet supplemented with sialic acid to 0.9 g/100 g diet vs control 0.15 g/100 g, 3 weeks, pilocarpine IP 1.5 mg/kg, 1.5 mg/kg): increased stimulated salivation equal to the salivation found in young animals; also recorded: significantly increased neuronal activity; also recorded: reached similar stimulated salivation values as the young animals; also recorded: proper salivation was re-established in aged animals | Pilocarpine stimulated salivation, aged vs young adult rats (young adult (3 m) and old age (24 m) rats, NeuAc enriched diet vs control diet for 3 weeks, FIG. 2, N=8-10): increased stimulated salivation in aged rats much more efficiently than in young adult rats
